{"source": "the supplement of paper PMC6045584", "key": {"[1]": {"compound": "Cn1nnc2c(C(N)=O)ncn2c1=O [TEMOZOLOMIDE]", "assay": "surviving fraction relative to DMSO-only wells; higher = less growth inhibition", "conditions": "exposure time: 5 days", "procedure,_shortened": "(§1)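 Tumour cell lines in log phase were plated in 384-well plates at 250–500 cells per well, then, after 24 hours, exposed continuously for five days to inhibitors at 0.5, 1, 5, 10, 50, 100, 500 and 1000 nM. Viability came from CellTiter-Glo luminescence, and surviving fraction is that signal normalised to the median of DMSO-only wells. Plates were read after 10 minutes at room temperature, and each line, screened three times, was kept only when replicate Pearson r was >0.7 and median Z' was >0.3.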"}, "[2]": {"compound": "CNC(=O)c1cc(Oc2ccc(NC(=O)Nc3ccc(Cl)c(C(F)(F)F)c3)cc2)ccn1 [SORAFENIB]", "assay": "surviving fraction relative to DMSO-only wells; higher = less growth inhibition", "conditions": "exposure time: 5 days", "procedure,_shortened": "as §1"}}, "note": "± gives the standard deviation of the averaged measurements."}
{"test system": "YAMATO SYNOVIAL", "values": [{"measurement": "surviving fraction", "setting": "[1]; 0.5 nM", "result": "1.14 ± 0.05"}, {"measurement": "surviving fraction", "setting": "[1]; 1 nM", "result": "1.16 ± 0.055"}, {"measurement": "surviving fraction", "setting": "[1]; 5 nM", "result": "1.27 ± 0.13"}, {"measurement": "surviving fraction", "setting": "[1]; 10 nM", "result": "1.35 ± 0.076"}, {"measurement": "surviving fraction", "setting": "[1]; 50 nM", "result": "1.22 ± 0.083"}, {"measurement": "surviving fraction", "setting": "[1]; 100 nM", "result": "1.4 ± 0.1"}, {"measurement": "surviving fraction", "setting": "[1]; 500 nM", "result": "1.31 ± 0.12"}, {"measurement": "surviving fraction", "setting": "[1]; 1000 nM", "result": "1.38 ± 0.095"}, {"measurement": "surviving fraction", "setting": "[2]; 0.5 nM", "result": "1.26 ± 0.054"}, {"measurement": "surviving fraction", "setting": "[2]; 1 nM", "result": "1.24 ± 0.066"}, {"measurement": "surviving fraction", "setting": "[2]; 5 nM", "result": "1.37 ± 0.096"}, {"measurement": "surviving fraction", "setting": "[2]; 10 nM", "result": "1.26 ± 0.078"}, {"measurement": "surviving fraction", "setting": "[2]; 50 nM", "result": "1.44 ± 0.096"}, {"measurement": "surviving fraction", "setting": "[2]; 100 nM", "result": "1.35 ± 0.05"}, {"measurement": "surviving fraction", "setting": "[2]; 500 nM", "result": "1.18 ± 0.088"}, {"measurement": "surviving fraction", "setting": "[2]; 1000 nM", "result": "1.04 ± 0.056"}]}
{"test system": "ZR751 BREAST", "values": [{"measurement": "surviving fraction", "setting": "[1]; 0.5 nM", "result": "0.95 ± 0.12"}, {"measurement": "surviving fraction", "setting": "[1]; 1 nM", "result": "0.953 ± 0.032"}, {"measurement": "surviving fraction", "setting": "[1]; 5 nM", "result": "0.981 ± 0.034"}, {"measurement": "surviving fraction", "setting": "[1]; 10 nM", "result": "0.964 ± 0.09"}, {"measurement": "surviving fraction", "setting": "[1]; 50 nM", "result": "0.987 ± 0.15"}, {"measurement": "surviving fraction", "setting": "[1]; 100 nM", "result": "1.04 ± 0.11"}, {"measurement": "surviving fraction", "setting": "[1]; 500 nM", "result": "0.918 ± 0.11"}, {"measurement": "surviving fraction", "setting": "[1]; 1000 nM", "result": "1.05 ± 0.06"}, {"measurement": "surviving fraction", "setting": "[2]; 0.5 nM", "result": "1.08 ± 0.086"}, {"measurement": "surviving fraction", "setting": "[2]; 1 nM", "result": "1.04 ± 0.02"}, {"measurement": "surviving fraction", "setting": "[2]; 5 nM", "result": "0.99 ± 0.056"}, {"measurement": "surviving fraction", "setting": "[2]; 10 nM", "result": "1.02 ± 0.18"}, {"measurement": "surviving fraction", "setting": "[2]; 50 nM", "result": "1.28 ± 0.042"}, {"measurement": "surviving fraction", "setting": "[2]; 100 nM", "result": "1.31 ± 0.19"}, {"measurement": "surviving fraction", "setting": "[2]; 1000 nM", "result": "1.06 ± 0.072"}]}
